Reference: PubChem BioAssay (NCI)
Where “and” joins values, the source holds several entries; their conditions need not be identical. Identical values can stand only once.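 1) Cells in 96-well plates. 2) Compound, 48 h, 5 concentrations. 3) Linear interpolation between surrounding doses. 4) Unreached endpoint = highest concentration. GI50 is the concentration that inhibits growth by half. TGI is the concentration that stops growth completely.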

Experiments:
Assay in all cases: NCI-60 cell line screen, 48 h
DMS 114 small cell lung = test system: DMS 114 small cell lung
KM20L2 colon = test system: KM20L2 colon
HOP-18 NSCLC = test system: HOP-18 NSCLC
SNB-78 CNS = test system: SNB-78 CNS
U251 CNS = test system: U251 CNS
OVCAR-5 ovarian = test system: OVCAR-5 ovarian
OVCAR-8 ovarian = test system: OVCAR-8 ovarian
M19-MEL melanoma = test system: M19-MEL melanoma
MDA-MB-435 = test system: MDA-MB-435
NCI/ADR-RES ovarian = test system: NCI/ADR-RES ovarian

Compound	TGI (DMS 114 small cell lung)	TGI (KM20L2 colon)	TGI (HOP-18 NSCLC)	TGI (SNB-78 CNS)	TGI (U251 CNS)	TGI (OVCAR-5 ovarian)	TGI (OVCAR-8 ovarian)	TGI (M19-MEL melanoma)	TGI (MDA-MB-435)	GI50 (DMS 114 small cell lung)	GI50 (KM20L2 colon)	GI50 (NCI/ADR-RES ovarian)	TGI (NCI/ADR-RES ovarian)	GI50 (SNB-78 CNS)	GI50 (U251 CNS)	GI50 (M19-MEL melanoma)	GI50 (OVCAR-5 ovarian)	GI50 (OVCAR-8 ovarian)
O=C1CCC(=O)C(C(=O)CCC(=O)Nc2ccc(Cl)cc2)C1 (stereo not given)	> 100 µM	> 100 µM	> 100 µM	> 100 µM	> 100 µM	> 100 µM	> 100 µM											
COc1cc2ccc(C(=O)O)cc2cc1OC		> 100 µM	> 100 µM	> 100 µM	> 100 µM	> 100 µM	> 100 µM	> 100 µM										
O=C1NC(=Nc2ccccc2Cl)SC1C(=O)Nc1ccc([N+](=O)[O-])cc1[N+](=O)[O-] (stereo not given)	> 100 µM	> 100 µM	> 100 µM	> 100 µM	> 100 µM	> 100 µM	> 100 µM	> 100 µM										
CCCCCCCC(=O)O[C@H]1[C@H]2[C@@H](CC1(C)C)C(=O)[C@]13O[C@H]1C(=O)[C@]1(CO1)[C@]23C	3.41 µM and 9.4 µM	11.9 µM and 13.8 µM	9.3 µM and 12.8 µM	26.6 µM and 13.5 µM	11.9 µM and 22.8 µM	28.8 µM and 25.9 µM	24.5 µM and 8.05 µM	4.91 µM and 8.92 µM	75 µM	1.61 µM	2.73 µM	2.39 µM and 1.72 µM	5.26 µM and 9.64 µM	12.1 µM	5.8 µM	2.09 µM	15.3 µM	8.06 µM
C/C(=N/OCCC(=O)O)C1CC1	> 100 µM	> 100 µM	> 100 µM	> 100 µM	> 100 µM		> 100 µM	> 100 µM										
CC1(C)CC(=O)C=C(NC(=O)c2ccccc2)C1	> 100 µM			> 100 µM	> 100 µM		> 100 µM	> 100 µM										
BrCC[N+]12CCCN1CCC2		42.2 µM	21.7 µM	37.5 µM	32.7 µM	40 µM	39.3 µM	34.1 µM										
Cc1cccc2c1C(=O)OC2(c1cccc2ccccc12)c1cccc2ccccc12	> 100 µM	> 100 µM	> 100 µM		> 100 µM	> 100 µM	> 100 µM	> 100 µM										
O=C(O)CNCc1c2ccccc2nc2ccccc12	72.7 µM	91.1 µM	> 100 µM	> 100 µM	> 100 µM	> 100 µM	> 100 µM	> 100 µM	> 100 µM				> 100 µM					
CC(C)=CCCC1(C)C=Cc2c(ccc3c2[nH]c2cc(O)c(C)cc23)O1 (stereo not given)	19.8 µM	10.4 µM		> 25 µM	8.03 µM	> 25 µM	7.49 µM	16.8 µM			5.22 µM				4.53 µM	6.99 µM		
CCCN(CCC)c1c([N+](=O)[O-])cc(C(N)=O)cc1[N+](=O)[O-]	> 100 µM				> 100 µM	> 100 µM	> 100 µM	> 100 µM										
O=C1/C(=C/c2ccccc2)CN(C(=O)Oc2ccccc2)C/C1=C\c1ccccc1	> 100 µM	> 100 µM	> 100 µM	53.1 µM	> 100 µM	> 100 µM	> 100 µM	> 100 µM										
CCOc1c(Cc2ccccc2)c(=O)n2c3ccccc3n3c(=O)n(C)c(=O)c1c23	> 100 µM		> 100 µM	> 100 µM	> 100 µM	> 100 µM	> 100 µM	> 100 µM										
CCc1cc2c(c3[nH]ccc13)[C@@H](C)C[C@H]2C	43.4 µM		37.2 µM	34.6 µM	31.6 µM		41.1 µM	32.2 µM										
CN(C)/C=C/C(=O)c1cccc(C(=O)/C=C/N(C)C)n1		> 100 µM	> 100 µM	> 100 µM	> 100 µM	> 100 µM	> 100 µM	> 100 µM										
O=C(O)CSc1nnc(COc2ccccc2)n1-c1ccccc1	> 100 µM	> 100 µM		> 100 µM	> 100 µM	> 100 µM	> 100 µM	> 100 µM										
O=[P+](O)c1cc2c3ccccc3ccc2c2ccccc12	> 100 µM	> 100 µM	> 100 µM	> 100 µM	> 100 µM		> 100 µM	> 100 µM										
COC(=O)C1=C(c2cc(OC)c(OC)c(OC)c2)OC(c2cc(OC)c(OC)c(OC)c2)C1 (stereo not given)	82.9 µM	73.6 µM	50.2 µM	> 100 µM	44.2 µM	> 100 µM	> 100 µM	78.2 µM										
CCC[CH2][Sn]1([CH2]CCC)[O]N=Cc2ccccc2[O]1	0.94 µM	2.55 µM		0.811 µM	1.41 µM	3.08 µM	2.12 µM	2.08 µM		0.309 µM	1.26 µM			0.287 µM	0.387 µM	0.815 µM	1.69 µM	0.89 µM
